Data from patent publication US20060205751A1, “Novel compounds” (SmithKline Beecham Corporation, priority 2003, published 2006).

O=C(O)c1cccc(-c2cc3cc(Cl)c(Cl)cc3[nH]2)c1 [Example 1, 3-(5,6-Dichloro-1H-indol-2-yl)-benzoic acid]
melting point: 79.5 to 80.5 °C
